Experimental data from BindingDB's records for doi:10.1016/s0960-894x(02)00790-4 (British Biotech Pharmaceuticals, 2002).
Counter-ions that a name gives are not always drawn.

How the values were obtained:
Test in all cases: Compound was evaluated for inhibition of peptide deformylase, PDF.Ni of Escherichia coli
[1] = target: Peptide deformylase (Escherichia coli) (UniProt P0A6K3)
[2] = target: Peptide deformylase (Escherichia coli) (UniProt P0A6K3); remark: listed apart in the source
[3] = target: Peptide deformylase (Escherichia coli) (UniProt P0A6K3); remark: listed apart in the source

Sequence of Peptide deformylase (Escherichia coli) (P0A6K3 whole entry, looked up): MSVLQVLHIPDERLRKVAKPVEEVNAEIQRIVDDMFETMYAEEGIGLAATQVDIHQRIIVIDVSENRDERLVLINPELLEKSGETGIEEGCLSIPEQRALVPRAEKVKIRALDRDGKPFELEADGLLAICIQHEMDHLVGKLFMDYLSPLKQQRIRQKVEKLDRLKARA

IC50 [2] [µM] | SMILES | further results
– | CCCCC(CS)C(=O)NC(CCCNC(=N)N)C(=O)OC (stereo not given) [5-Guanidino-2-(2-mercaptomethyl-hexanoylamino)-pentanoic acid methyl ester; TFA] | Ki [1]: 2.5 µM
> 1 | CCCC[C@H](CN(O)C(N)=O)C(=O)N[C@H](C(=O)N(C)C)C(C)(C)C [(2R)-2-{[(aminocarbonyl)(hydroxy)amino]methyl}-N-{(1S)-1-[(dimethylamino)carbonyl]-(2,2-dimethyl)-propyl}hexanamide] | –
> 1 | CCCCC(CC(=N)NO)C(=O)N[C@H](C(=O)N(C)C)C(C)(C)C (stereo partly drawn) [(R)-2-(N-Hydroxycarbamimidoylmethyl)-hexanoic acid ((S)-1-dimethylcarbamoyl-2,2-dimethyl-propyl)-amide] | –
0.001 | CCCC[C@H](CC(=O)NO)C(=O)N[C@H](C(=O)N(C)C)C(C)(C)C [(R)-2-Butyl-N*1*-((S)-1-dimethylcarbamoyl-2,2-dimethyl-propyl)-N*4*-hydroxy-succinamide] | –
> 1 | CCCC[C@H](CNC=O)C(=O)N[C@H](C(=O)N(C)C)C(C)(C)C [(R)-2-Formylaminomethyl-hexanoic acid ((S)-1-dimethylcarbamoyl-2,2-dimethyl-propyl)-amide] | –
0.2 | CCCC[C@H](CC(=O)NN)C(=O)N[C@H](C(=O)N(C)C)C(C)(C)C [(R)-2-Hydrazinocarbonylmethyl-hexanoic acid ((S)-1-dimethylcarbamoyl-2,2-dimethyl-propyl)-amide] | –
– | CCCC[C@H](CS)C(=O)N[C@@H](CCCCN)C(=O)Nc1ccc([N+](=O)[O-])cc1 [(S)-2-Mercaptomethyl-hexanoic acid [(S)-5-amino-1-(4-nitro-phenylcarbamoyl)-pentyl]-amide] | Ki [3]: 0.019 µM
> 1 | CCCCC(C[PH](=O)O)C(=O)N[C@H](C(=O)N(C)C)C(C)(C)C (stereo partly drawn) [[2-((S)-1-Dimethylcarbamoyl-2,2-dimethyl-propylcarbamoyl)-hexyl]-phosphinic acid] | –
> 1 | CCCCC(CP(=O)(O)O)C(=O)N[C@H](C(=O)N(C)C)C(C)(C)C (stereo partly drawn) [[2-((S)-1-Dimethylcarbamoyl-2,2-dimethyl-propylcarbamoyl)-hexyl]-phosphonic acid] | –
> 1 | CCCC[C@H](NCC(=O)O)C(=O)N[C@H](C(=O)N(C)C)C(C)(C)C [[(S)-1-((S)-1-Dimethylcarbamoyl-2,2-dimethyl-propylcarbamoyl)-pentylamino]-acetic acid] | –
